Measured values taken from PMC7762786, “The discovery of novel antitrypanosomal 4-phenyl-6-(pyridin-3-yl)pyrimidines” (European Journal of Medicinal Chemistry, 2021).

Experiments:
hERG = biological target: T1, hERG (Homo sapiens, UniProt Q12809); assay: hERG cardiotoxicity assay (Predictor hERG Fluorescence Polarisation); format: binding; settings: 10 μM, result in words
T1 construct: purchased Invitrogen
Procedure: (§1) Cytotoxicity was also determined against 786-O and A549 cells.
(§2) Experiments for determining pre-clinical in vitro ADME-Tox activities were performed as described by Moraes et al. and also described in the following sections 4.3.2.1 to 4.3.2.4.
The Invitrogen Predictor™ hERG Fluorescence Polarisation Assay was used in 384-well assay format. […] The plates were incubated for 2 h at 25 °C in a humidity-controlled incubator and the fluorescence polarisation was measured using an EnVision® multilabel 2103 reader. […] The raw data were normalised relative to the positive and negative controls yielding the % cardiotoxicity for each compound.

rhodesain [1] = biological target: T2, rhodesain (Trypanosoma brucei rhodesiense, UniProt Q95PM0); assay: In vitro rhodesain enzyme assay (Cbz-Phe-Arg-AMC substrate); format: biochemical; settings: compound at 50 μM; Cbz-Phe-Arg-AMC substrate 10, 5 and 1.25 μM; read-out: inhibition of rhodesain enzymatic activity
T2 sequence (Q95PM0 entry or part of it): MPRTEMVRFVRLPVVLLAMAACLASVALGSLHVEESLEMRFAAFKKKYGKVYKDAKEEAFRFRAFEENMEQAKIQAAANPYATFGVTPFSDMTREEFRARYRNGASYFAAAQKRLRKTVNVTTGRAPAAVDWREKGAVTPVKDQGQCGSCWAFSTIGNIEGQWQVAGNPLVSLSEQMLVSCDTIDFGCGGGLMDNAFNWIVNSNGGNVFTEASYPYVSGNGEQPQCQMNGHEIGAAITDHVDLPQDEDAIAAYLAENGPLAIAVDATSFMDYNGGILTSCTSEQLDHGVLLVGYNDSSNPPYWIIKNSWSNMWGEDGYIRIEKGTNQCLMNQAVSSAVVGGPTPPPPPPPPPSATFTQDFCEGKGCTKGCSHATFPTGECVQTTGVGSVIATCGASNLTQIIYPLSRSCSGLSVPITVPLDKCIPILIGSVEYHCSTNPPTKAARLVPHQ
Procedure: Enzyme assays with rhodesain were performed as described previously [[36], [37], [38]]. The assay buffer consisted of 50 mM sodium acetate (pH 5.5), 5 mM EDTA, 200 mM NaCl and 0.005% Brij35. The enzyme buffer consisted of 50 mM sodium acetate (pH 5.5), 5 mM EDTA, 200 mM NaCl and 2 mM DTT. The substrate Cbz-Phe-Arg-AMC (Bachem, purchased as HCl salt) was diluted from a 1 mM stock solution to reach concentrations of 10, 5 and 1.25 μM. […] Inhibition against rhodesain was measured using Cbz-Phe-Arg-AMC as the substrate, which releases AMC (7-amino-4-methylcoumarin) after amide bond cleavage by the enzyme. Proteolytic activity of the enzyme was monitored spectrophotometrically by the increase of fluorescence intensity by release of AMC (emission at 460 nm) upon hydrolysis.

rhodesain [2] = biological target: T2, rhodesain; assay: STD and WaterLOGSY NMR protein-ligand interaction; format: binding; settings: rhodesain 50 μM, compound 5 mM, 25 °C; corroborated by WaterLOGSY
Text: In order to support the outcome observed from docking studies, protein-ligand interactions were probed via Saturation Transfer Difference (STD) and WaterLOGSY experiments. STD is an NMR technique where the protein is selectively saturated and, if the ligand is binding to the protein in the timescale of the experiment, the saturation gets transferred to the ligand via intermolecular NOE and only then it is possible to observe an NMR signal. WaterLOGSY relies on the detection of the intermolecular NOE between water (which is selectively irradiated) and the ligand. The sign of the NOE depends on the rotational correlation time of the molecule, thus large molecules such as proteins, have an opposite NOE sign than small molecules such as the pyrimidines investigated. If the pyrimidines bind to the protein, their rotational correlation time changes and the sign of the signals in the WaterLOGSY experiment will be opposite than in the absence of a binding protein. […] The WaterLOGSY results, which as expected is generally a more sensitive technique, further corroborate our findings. […]
All NMR studies were performed at 25 °C on a JEOL ECZ-R 600 MHz spectrometer equipped with a ROYAL room temperature probe. […] The spectra were processed and analysed using JEOL Delta software. […]

HDAC1 = biological target: T3, HDAC1 (Homo sapiens, UniProt Q13547); assay: Histone deacetylase assay (HDAC-Glo I/II); format: biochemical; settings: 10 μM, result in words
T3 construct: purchased BPS Bioscience (San Diego, USA)
T3 sequence (Q13547 whole entry): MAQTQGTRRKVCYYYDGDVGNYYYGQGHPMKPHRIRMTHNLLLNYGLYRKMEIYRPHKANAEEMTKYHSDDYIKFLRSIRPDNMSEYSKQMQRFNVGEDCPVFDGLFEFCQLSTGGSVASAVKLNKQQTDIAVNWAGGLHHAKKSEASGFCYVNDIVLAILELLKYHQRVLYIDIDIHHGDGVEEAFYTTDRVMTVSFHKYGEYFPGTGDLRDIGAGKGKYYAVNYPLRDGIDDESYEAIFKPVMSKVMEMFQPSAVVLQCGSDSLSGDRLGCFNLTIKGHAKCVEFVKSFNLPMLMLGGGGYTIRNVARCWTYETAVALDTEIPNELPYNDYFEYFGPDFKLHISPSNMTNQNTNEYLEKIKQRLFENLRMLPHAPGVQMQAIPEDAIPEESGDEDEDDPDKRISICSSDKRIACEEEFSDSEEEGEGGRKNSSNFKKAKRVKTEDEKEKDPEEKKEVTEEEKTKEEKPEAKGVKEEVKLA
Procedure: as §1, §2
Inhibition of histone deacetylase (HDAC) enzymes was determined using the bioluminogenic HDAC-Glo™ I/II assay (Promega Corp.) in 384-well assay format. Human recombinant HDAC enzymes were purchased from BPS Bioscience (San Diego, USA) and the standard inhibitor trichostatin A (Sigma-Aldrich) was dissolved to a yield stock solution in 100% v/v DMSO (stored at −20 °C). Plate handling was performed using a Cell Explorer HTS platform equipped with an Echo 550® Liquid Handler and Multidrop liquid handling system with luminescence measurements taken using an EnVision® multilabel 2103 reader. Compounds were added to plates (100 nL/well; 1% v/v DMSO) and the HDAC-Glo™ I/II assay reagent was prepared by (i) rehydration of lyophilised HDAC-Glo™ I/II substrate (with an acetylated peptide concentration of 100 μM) in 10 mL HDAC-Glo™ I/II assay buffer and (ii) addition of 10 μL of developer reagent (containing trypsin). The microtiter plates were mixed briefly by orbital shaking (500–700 rpm) and luminescence was measured at steady-state signal:background which was achieved after 20 min. The raw data were normalised relative to the positive and negative controls yielding the % inhibition for each compound.

T1 sequence (Q12809 whole entry): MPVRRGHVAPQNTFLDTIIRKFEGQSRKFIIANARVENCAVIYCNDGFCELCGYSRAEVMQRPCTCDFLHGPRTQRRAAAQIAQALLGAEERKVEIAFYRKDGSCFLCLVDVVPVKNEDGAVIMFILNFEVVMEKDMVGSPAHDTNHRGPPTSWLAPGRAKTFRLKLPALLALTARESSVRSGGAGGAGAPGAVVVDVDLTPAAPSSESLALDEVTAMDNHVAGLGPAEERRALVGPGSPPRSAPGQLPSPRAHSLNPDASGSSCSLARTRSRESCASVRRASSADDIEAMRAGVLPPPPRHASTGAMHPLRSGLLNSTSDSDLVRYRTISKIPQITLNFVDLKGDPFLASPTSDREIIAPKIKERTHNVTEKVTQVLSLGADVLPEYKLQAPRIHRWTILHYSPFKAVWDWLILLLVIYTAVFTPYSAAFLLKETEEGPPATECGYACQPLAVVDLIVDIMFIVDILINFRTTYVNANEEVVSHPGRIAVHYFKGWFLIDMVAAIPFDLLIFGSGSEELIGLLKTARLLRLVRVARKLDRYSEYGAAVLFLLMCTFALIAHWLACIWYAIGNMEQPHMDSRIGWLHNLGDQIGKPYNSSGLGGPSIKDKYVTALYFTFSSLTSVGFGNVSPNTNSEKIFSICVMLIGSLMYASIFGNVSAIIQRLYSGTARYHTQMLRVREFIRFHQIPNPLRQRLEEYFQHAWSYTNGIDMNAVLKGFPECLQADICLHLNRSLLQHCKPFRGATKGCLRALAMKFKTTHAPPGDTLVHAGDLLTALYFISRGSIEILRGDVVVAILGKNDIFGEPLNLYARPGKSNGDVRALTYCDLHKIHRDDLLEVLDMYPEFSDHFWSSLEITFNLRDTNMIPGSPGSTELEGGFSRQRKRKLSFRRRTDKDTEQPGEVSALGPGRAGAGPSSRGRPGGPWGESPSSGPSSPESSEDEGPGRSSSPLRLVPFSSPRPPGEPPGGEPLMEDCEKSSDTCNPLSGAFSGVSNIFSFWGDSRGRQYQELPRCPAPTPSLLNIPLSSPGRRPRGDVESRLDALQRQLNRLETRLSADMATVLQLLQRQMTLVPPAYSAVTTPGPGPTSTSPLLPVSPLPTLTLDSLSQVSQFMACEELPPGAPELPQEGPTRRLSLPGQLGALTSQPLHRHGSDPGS

## COc1ccccc1-c1cc(-c2cccnc2)nc(N)n1 [Compound 13, 4-(2-Methoxyphenyl)-6-(pyridin-3-yl)pyrimidin-2-amine]
hERG
  hERG cardiotoxicity: no notable
Rhodesain [1]
  inhibition at 50 µM: ≤ 15%
Rhodesain [2]
  binding to rhodesain by STD NMR: confirming binding to rhodesain
other
  melting point: 108 to 110 °C
HDAC1
  HDAC1 inhibition: No inhibition
